Assay results from PubChem BioAssay (NCI).
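Interpolation was linear, between the two tested concentrations surrounding the appropriate level; five concentrations were tested over 48 hours in 96-well plates. TGI: total growth inhibition.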

Key:
Experiment in all cases: NCI tumour cell line growth inhibition, 48 h
EKVX NSCLC = tested on: EKVX NSCLC
A549 NSCLC = tested on: A549 NSCLC
UACC-62 melanoma = tested on: UACC-62 melanoma
UACC-257 melanoma = tested on: UACC-257 melanoma
HT29 colon = tested on: HT29 colon
SK-MEL-28 melanoma = tested on: SK-MEL-28 melanoma
SF-295 CNS = tested on: SF-295 CNS
MDA-MB-435 = tested on: MDA-MB-435
SW-620 colon = tested on: SW-620 colon
T-47D breast = tested on: T-47D breast
SF-268 CNS = tested on: SF-268 CNS
RXF 393 renal = tested on: RXF 393 renal
OVCAR-5 ovarian = tested on: OVCAR-5 ovarian
CAKI-1 renal = tested on: CAKI-1 renal
TK-10 renal = tested on: TK-10 renal
SF-539 CNS = tested on: SF-539 CNS
CCRF-CEM leukemia = tested on: CCRF-CEM leukemia
HOP-62 NSCLC = tested on: HOP-62 NSCLC
M14 melanoma = tested on: M14 melanoma
SR leukemia = tested on: SR leukemia

Compound	TGI (EKVX NSCLC) [µM]	TGI (A549 NSCLC) [µM]	TGI (UACC-62 melanoma) [µM]	TGI (UACC-257 melanoma) [µM]	TGI (HT29 colon) [µM]	TGI (SK-MEL-28 melanoma) [µM]	TGI (SF-295 CNS) [µM]	TGI (MDA-MB-435) [µM]	TGI (SW-620 colon) [µM]	TGI (T-47D breast) [µM]	TGI (SF-268 CNS) [µM]	TGI (RXF 393 renal) [µM]	TGI (OVCAR-5 ovarian) [µM]	TGI (CAKI-1 renal) [µM]	TGI (TK-10 renal) [µM]	TGI (SF-539 CNS) [µM]	TGI (CCRF-CEM leukemia) [µM]	TGI (HOP-62 NSCLC) [µM]	TGI (M14 melanoma) [µM]	TGI (SR leukemia) [µM]
CC1OC(OCC2OC(Oc3ccc(C4CC(=O)c5c(O)cc(O)cc5O4)cc3O)C(O)C(O)C2O)C(O)C(O)C1O (centres undefined)	> 100	> 100	> 100	> 100	> 100	> 100	> 100	> 100	> 100	> 100	> 100	> 100	> 100	> 100	> 100	> 100	> 100	> 100	> 100	> 100
COc1ccc(/C=C2\CCc3cc(OC)c(OC)cc3C2=O)cc1	> 10	> 10	> 10	> 10	> 10	> 10	> 10	> 10	> 10	> 10	> 10	> 10	> 10	> 10	> 10	> 10	> 10	> 10	> 10	> 10
O=C(NNC(=O)c1ccccc1O)c1ccco1	> 100	> 100	> 100	> 100	> 100	> 100	> 100	> 100	> 100	> 100	> 100	> 100	> 100	> 100	> 100	> 100	> 100	> 100	> 100	> 100
CC(C)NC(=O)OCc1c(COC(=O)NC(C)C)c(-c2cc[n+](COC(=O)C(C)C)cc2)n2c1CCC2	> 100	> 100	> 100	> 100	> 100	> 100	> 100	> 100	> 100	> 100	> 100	62.5	> 100	> 94.8	> 100	> 100	> 100	> 100	> 100	> 63.3
CCOC(=O)C(NC(=O)c1cccc(Cl)c1)(N1CCN(c2cc3c(cc2F)c(=O)c(C(=O)O)cn3C2CC2)CC1)C(F)(F)F (centres undefined)	55.2	50.5	42.2			32.4	53.5	28.8	27.2	48.9	29.1	34.4	31.1	36.2		31.3	9.78	50	33.2	25.8
CC(=O)Oc1ccc(/C=C/C(=O)OCCOC(=O)/C=C/c2ccc(OC(C)=O)c(OC(C)=O)c2)cc1OC(C)=O	45	50.3	16.3	22.6	> 56.7	29.4	25.4	28	49	43	56.5	21.3	> 60.1	11.6	37.2	13.4	6.12	5.23	25.3	20.7
CCCCCC(=Nc1n[nH]nc1C(N)=O)OCC	> 100	> 100	> 100	> 100	> 100	> 100	> 100	> 100	> 100	> 100	> 100	> 100	> 100	> 100	> 100	> 100	> 100	> 100	> 100	> 100
COCOc1c(C(OCOC)c2cnc(Sc3ccccc3)n2C)ccc(OC)c1OC (centres undefined)	> 100	> 100	> 100	> 100	> 100	> 100	> 100	> 100	> 100	> 100	> 100	> 100	> 100	> 100	> 100	> 100	> 100	> 100		> 100
CCc1ccc(/C=C/C(=O)C2CN(CC)CCC2(O)/C=C/c2ccc(CC)cc2)cc1 (centres undefined)	17.4	20	16.2	19.3	3.79	3.04	8.9	4.07	4.4	10.1	12	8.43	9.69	18.7	5.54	6	5.16	3.54	7.11	3.99
C[N+](C)(C)CCOP(=O)([O-])OCCNC(=O)c1ccc2ccccc2c1	> 100	> 100	> 100	> 100	> 100	> 100	> 100	> 100	> 100	> 100	> 100	> 100	> 100	> 100	> 100	> 100	> 100	> 100	> 100	> 100
CC(C)(C)OC(=O)NC(CS(=O)(=O)O)C(=O)O (centres undefined)	> 100	> 100	> 100	> 100	> 100	> 100	> 100	> 100	> 100	> 100	> 100	> 100	> 100	> 100	> 100	> 100	> 100	> 100	> 100	> 100
O=C(c1ccccc1)N1CCC(Nc2nccs2)O1 (centres undefined)	> 10	> 10		> 10	> 10	> 10	> 10	> 10	> 10	> 10	> 10	> 10	> 10	> 10	> 10	> 10	> 10	> 10	> 10	> 10
O=c1c2ccccc2nc2sc(/N=C/C=C/c3ccccc3)nn12	> 100	> 100	> 100	> 100	> 100	> 100	> 100	> 100	> 100	> 100	> 100	> 100	> 100	> 100	> 100	> 100	> 100	> 100	> 100	> 100
COC(=O)[C@@H]1COC(C(C)(C)C)N1C(=O)C(c1ccccc1)c1ccccc1 (some centres undefined)	> 100	> 100	> 100	> 100	> 100	> 100	> 100	> 100	> 100	> 100	> 100	38.1	> 100	> 100	> 100	> 100	84.7	> 100	> 100	33.9
CCOC(=O)CC(=O)CSc1c(-c2ccccc2)c(=O)n(-c2ccccc2)c(=S)n1-c1ccccc1	> 100	> 100	> 100	> 100	> 100	> 100	> 100	> 100	> 100	> 100	> 100	> 100	> 100	> 100	> 100	> 100	> 100	> 100	> 100	> 100
Cc1cc2c(cc1C)C(=O)/C(=C/c1ccccc1C(=O)O)C2	> 100	> 100	> 100	> 100	> 100	> 100	> 100	> 100	> 100	> 100	> 100	> 100	68.9	> 100	> 100	39.6	> 100	> 100	> 100	62.7
CNc1ncnc2c1cnn2CCCCO	> 100	> 100	> 100	> 100	> 100	> 100	> 100	> 100	> 100	> 100	> 100	> 100	> 100	> 100	> 100	> 100	> 100	> 100	> 100	> 100
CCCCc1ccc(Nc2nc(Cl)c3ncn(C4CC(Oc5ccc(C)cc5)C(COc5ccc(C)cc5)O4)c3n2)cc1 (centres undefined)	> 100	> 100	> 100	> 100	> 100		> 100	> 100	> 100	> 100	> 100	> 100	> 100	30.9	> 100	> 100	> 100	> 100	> 100	> 100
CCOC(=O)C(NC(=O)c1ccccc1)(Nc1ccc(S(=O)(=O)Nc2cc(C)nc(C)n2)cc1)C(F)(F)F (centres undefined)	> 100	> 100	> 100	> 100	> 100	> 100	> 100	> 100	> 100	> 100	> 100	> 100	> 100	> 100	> 100	> 100	> 100	> 100	> 100	> 100
N#CCC1(c2ccc(Cl)cc2)NC(=O)c2ccccc21 (centres undefined)	> 100	> 100	> 100	> 100	> 100	> 100	> 100	> 100	> 100	> 100	> 100	> 100	> 100	> 100	> 100	> 100	> 100	> 100	> 100	> 100
COC(=O)N/N=C(\c1ccccc1)c1ccc(OC)cc1	> 100	> 100	> 100	> 100	> 100	> 100		> 100	> 100	> 100	> 100	> 100	> 100	> 100	> 100	> 100	> 100		> 100	> 100
O=c1oc2c/c(=C\c3ccccn3)c(=O)c3cccc1c3-2	> 100		> 100	> 100	> 100	> 100	> 100	> 100	> 100	> 100	> 100	37.7	> 100	> 100	> 100	57.4	> 100	39.2	> 100	> 100
COC(=O)N/N=C(/c1nc2ccc([N+](=O)[O-])cc2[nH]c1=O)C(O)c1ccc(OC)c(OC)c1 (centres undefined)	> 100	> 100	> 100	> 100	> 100	> 100	> 100	> 100	> 100	> 100	> 100	> 100	> 100	> 100	> 100	> 100	> 100	> 100	> 100	39
CNN1C(=O)c2c(C)c(C)c(C#N)c(N)c2C1=O	> 100	> 100	> 100	> 100		> 100	> 100	> 100	> 100	> 100	> 100	> 100	> 100	> 100	> 100	> 100	> 100		> 100	> 100
